Results on 17 compounds are retold here after US20230174507A1, “IMIDAZOLE 3-OXIDE DERIVATIVE BASED ACSS2 INHIBITORS AND METHODS OF USE THEREOF” (METABOMED LTD., priority 2020, published 2023).

One test concerns the target T1, human ACSS1 protein (Homo sapiens, UniProt Q9NUB1).
T1 construct: purchased MyBioSource
T1 sequence (Q9NUB1 38-689): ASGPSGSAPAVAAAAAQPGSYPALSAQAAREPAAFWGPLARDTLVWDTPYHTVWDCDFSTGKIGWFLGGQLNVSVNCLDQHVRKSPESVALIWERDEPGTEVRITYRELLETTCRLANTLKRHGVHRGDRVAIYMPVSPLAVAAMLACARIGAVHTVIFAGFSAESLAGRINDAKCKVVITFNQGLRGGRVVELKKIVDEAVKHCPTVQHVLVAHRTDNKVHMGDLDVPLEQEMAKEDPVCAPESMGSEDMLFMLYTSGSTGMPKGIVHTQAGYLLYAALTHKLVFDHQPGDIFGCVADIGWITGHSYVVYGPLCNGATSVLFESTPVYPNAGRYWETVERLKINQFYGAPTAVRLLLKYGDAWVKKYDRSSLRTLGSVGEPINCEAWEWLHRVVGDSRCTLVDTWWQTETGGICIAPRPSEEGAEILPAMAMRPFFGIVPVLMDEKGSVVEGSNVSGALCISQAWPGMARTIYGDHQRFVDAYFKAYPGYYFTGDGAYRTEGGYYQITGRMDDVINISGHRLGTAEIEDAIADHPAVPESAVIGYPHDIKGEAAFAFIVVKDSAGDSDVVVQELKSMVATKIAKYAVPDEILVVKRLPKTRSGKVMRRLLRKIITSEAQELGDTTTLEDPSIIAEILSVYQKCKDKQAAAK
Kind of test: ACSS1 cell-free activity assay (pyrophosphatase-coupled, Biomol green). Type of test: biochemical. The following applies: 5 nM human ACSS1, 30 minutes at room temperature, absorbance at 620 nm. How it is done: ACSS1 Cell-Free Activity Assay (Cell-Free IC50)
The assay is based on a coupling reaction with Pyrophosphatase: ACSS1 is converting ATP+CoA+Acetate=>AMP+pyrophosphate+Acetyl-CoA (Ac-CoA). Pyrophosphatase converts pyrophosphate, a product of the ACSS1 reaction, to phosphate which can be detected by measuring the absorbance at 620 nm after incubation with the Biomol green reagent (Enzo life Science, BML-AK111).
(§1) Cell Free IC50 Determination:
5 nM of human ACSS1 protein (MyBioSource) was incubated for 30 minutes at room temperature with various compounds' concentrations in a reaction containing 50 mM Hepes pH 7.5, 10 mM DTT, 90 mM KCl, 0.006% Tween-20, 0.1 mg/ml BSA, 2 mM MgCl2, 15 μM CoA, 5 mM NaAc, 300 μM ATP and 0.5 U/ml Pyrophosphatase (Sigma). At the end of the reaction, Biomol Green was added for 30 minutes at RT and the activity was measured by reading the absorbance at 620 nm. IC50 values were calculated using non-linear regression curve fit with 0% and 100% constrains (CDD Vault, Collaborative Drug Discovery, Inc.).

Another test concerns the target T2, human ACSS2 protein (Homo sapiens, UniProt Q9NR19).
T2 construct: purchased OriGene Technologies, Inc
Briefly: ACSS2 cell-free activity assay (pyrophosphatase-coupled, Biomol green). The following applies: 10 nM human ACSS2, 90 minutes at 37 C, absorbance at 620 nm; read-out: ACSS2 Biochemical IC50. The protocol:
ACSS2 Cell-Free Activity Assay (Cell-Free IC50)
The assay is based on a coupling reaction with Pyrophosphatase: ACSS2 is converting ATP+CoA+Acetate=>AMP+pyrophosphate+Acetyl-CoA (Ac-CoA). Pyrophosphatase converts pyrophosphate, a product of the ACSS2 reaction, to phosphate which can be detected by measuring the absorbance at 620 nm after incubation with the Biomol green reagent (Enzo life Science, BML-AK111).
as §1
10 nM of human ACSS2 protein (OriGene Technologies, Inc) was incubated for 90 minutes at 37 C with various compounds' concentrations in a reaction containing 50 mM Hepes pH 7.5, 10 mM DTT, 90 mM KCl, 0.006% Tween-20, 0.1 mg/ml BSA, 2 mM MgCl2, 10 μM CoA, 5 mM NaAc, 300 μM ATP and 0.5 U/ml Pyrophosphatase (Sigma). At the end of the reaction, Biomol Green was added for 30 minutes at RT and the activity was measured by reading the absorbance at 620 nm. IC50 values were calculated using non-linear regression curve fit with 0% and 100% constrains (CDD Vault, Collaborative Drug Discovery, Inc.).

T2 sequence (Q9NR19 whole entry): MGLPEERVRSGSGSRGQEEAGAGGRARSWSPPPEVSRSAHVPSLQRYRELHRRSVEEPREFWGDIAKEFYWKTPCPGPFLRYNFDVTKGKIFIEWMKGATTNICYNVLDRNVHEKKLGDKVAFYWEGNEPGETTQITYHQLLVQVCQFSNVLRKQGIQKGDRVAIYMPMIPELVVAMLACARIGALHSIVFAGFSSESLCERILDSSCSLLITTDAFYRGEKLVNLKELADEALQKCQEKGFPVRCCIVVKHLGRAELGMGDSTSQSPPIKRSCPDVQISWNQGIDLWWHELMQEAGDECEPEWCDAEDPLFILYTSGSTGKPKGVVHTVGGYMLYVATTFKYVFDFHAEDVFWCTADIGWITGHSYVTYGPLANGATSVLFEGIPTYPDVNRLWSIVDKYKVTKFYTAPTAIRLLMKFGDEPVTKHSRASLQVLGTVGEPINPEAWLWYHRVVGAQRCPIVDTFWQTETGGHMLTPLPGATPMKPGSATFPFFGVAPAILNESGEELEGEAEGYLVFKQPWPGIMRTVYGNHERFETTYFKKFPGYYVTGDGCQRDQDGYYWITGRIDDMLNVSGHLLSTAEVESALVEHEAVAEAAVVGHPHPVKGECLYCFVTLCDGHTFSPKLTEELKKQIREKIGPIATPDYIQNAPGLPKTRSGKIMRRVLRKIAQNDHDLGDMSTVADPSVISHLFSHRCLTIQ

As to `CCC(F)(F)c1cccc(NC(=O)c2c(C)[nH]c(-c3ccc(OC)c(N4CCOCC4)c3)[n+]2[O-])c1` [Compound 150, 4-((3-(1,1-difluoropropyl)phenyl)carbamoyl)-2-(4-methoxy-3-morpholinophenyl)-5-methyl-1H-imidazole 3-oxide], on human ACSS1 protein, the “ACSS1 Biochemical IC50 (nM)” value is “Inactive”. In addition, at human ACSS2 protein, the IC50 is 1 to 30 nM.
In the same order, the values of `COc1ccc(-c2[nH]c(C)c(C(=O)Nc3cccc(C(F)(F)C4(C)CC4)c3)[n+]2[O-])cc1-c1c(C)cccc1C` [Compound 151, 4-((3-(difluoro(1-methylcyclopropyl)methyl)phenyl)carbamoyl)-2-(6-methoxy-2′,6′-dimethyl-[1,1′-biphenyl]-3-yl)-5-methyl-1H-imidazole 3-oxide] are “Inactive” and above 30 nM.
On the same counts, the results for `CCC(F)(F)c1cccc(NC(=O)c2c(C)[nH]c(-c3ccc(OC)c(-c4c(C)cc(C)cc4C)c3)[n+]2[O-])c1` [Compound 152, 4-((3-(1,1-difluoropropyl)phenyl)carbamoyl)-2-(6-methoxy-2′,4′,6′-trimethyl-[1,1′-biphenyl]-3-yl)-5-methyl-1H-imidazole 3-oxide] are “Inactive” and 1 to 30 nM.
Regarding `COc1ccc(-c2[nH]c(C)c(C(=O)Nc3cccc(C(=O)N4CCNCC4)c3)[n+]2[O-])cc1-c1c(C)cccc1C` [Compound 153, 2-(6-methoxy-2′,6′-dimethyl-[1,1′-biphenyl]-3-yl)-5-methyl-4-((3-(piperazine-1-carbonyl)phenyl)carbamoyl)-1H-imidazole 3-oxide], the “ACSS1 Biochemical IC50 (nM)” value on human ACSS1 protein is reported as “Inactive”. For the same compound, the IC50 on human ACSS2 protein was above 30 nM.
On the same counts, the results for `CCC(F)(F)c1cccc(NC(=O)c2c(C)[nH]c(-c3ccc(OC)c(-c4c(C)cc(CCc5ccccc5)cc4C)c3)[n+]2[O-])c1` [Compound 154, 4-((3-(1,1-difluoropropyl)phenyl)carbamoyl)-2-(6-methoxy-2′,6′-dimethyl-4′-phenethyl-[1,1′-biphenyl]-3-yl)-5-methyl-1H-imidazole 3-oxide] are “Inactive” and above 30 nM.
Regarding `CC#Cc1cc(C)c(-c2cc(-c3[nH]c(C)c(C(=O)Nc4cccc(C(F)(F)CC)c4)[n+]3[O-])ccc2OC)c(C)c1` [Compound 156, 4-((3-(1,1-difluoropropyl)phenyl)carbamoyl)-2-(6-methoxy-2′,6′-dimethyl-4′-(prop-1-yn-1-yl)-[1,1′-biphenyl]-3-yl)-5-methyl-1H-imidazole 3-oxide], the “ACSS1 Biochemical IC50 (nM)” value at human ACSS1 protein was “Inactive”. For the same compound, the IC50 on human ACSS2 protein lay within 1 to 30 nM.
In the same order, the values of `C/C=C/c1cc(C)c(-c2cc(-c3[nH]c(C)c(C(=O)Nc4cccc(C(F)(F)CC)c4)[n+]3[O-])ccc2OC)c(C)c1` [Compound 159, (E)-4-((3-(1,1-difluoropropyl)phenyl)carbamoyl)-2-(6-methoxy-2′,6′-dimethyl-4′-(prop-1-en-1-yl)-[1,1′-biphenyl]-3-yl)-5-methyl-1H-imidazole 3-oxide] are “Inactive” and 1 to 30 nM.
In the same order, the values of `C/C=C\c1cc(C)c(-c2cc(-c3[nH]c(C)c(C(=O)Nc4cccc(C(F)(F)CC)c4)[n+]3[O-])ccc2OC)c(C)c1` [Compound 160, (Z)-4-((3-(1,1-difluoropropyl)phenyl)carbamoyl)-2-(6-methoxy-2′,6′-dimethyl-4′-(prop-1-en-1-yl)-[1,1′-biphenyl]-3-yl)-5-methyl-1H-imidazole 3-oxide] are “Inactive” and 1 to 30 nM.
Take `CCCCc1cc(-c2c(C)cccc2C)cc(-c2[nH]c(C)c(C(=O)Nc3cccc(C(F)(F)C4CC4)c3)[n+]2[O-])c1` [Compound 161, 2-(5-butyl-2′,6′-dimethyl-[1,1′-biphenyl]-3-yl)-4-((3-(cyclopropyldifluoromethyl)phenyl)carbamoyl)-5-methyl-1H-imidazole 3-oxide]: the “ACSS1 Biochemical IC50 (nM)” value on human ACSS1 protein is “Inactive”. Also, the half-maximal inhibitory concentration (IC50) at human ACSS2 protein was below 1 nM.
As for `CCC(F)(F)c1cccc(NC(=O)c2c(C)[nH]c(-c3ccc(OC)c(C4CCNCC4)c3)[n+]2[O-])c1` [Compound 162, 4-((3-(1,1-difluoropropyl)phenyl)carbamoyl)-2-(4-methoxy-3-(piperidin-4-yl)phenyl)-5-methyl-1H-imidazole 3-oxide], the “ACSS1 Biochemical IC50 (nM)” value on human ACSS1 protein was “Inactive”. Further, the IC50 at human ACSS2 protein is below 1 nM.
In the same order, the values of `COc1ccc(-c2[nH]c(C)c(C(=O)Nc3cccc(C(=O)N4CCN(C)CC4)c3)[n+]2[O-])cc1-c1c(C)cccc1C` [Compound 163, 2-[3-(2,6-dimethylphenyl)-4-methoxy-phenyl]-5-methyl-N-[3-(4-methylpiperazine-1-carbonyl)phenyl]-3-oxido-1H-imidazol-3-ium-4-carboxamide] are “Inactive” and above 30 nM.
On the same counts, the results for `CCC(F)(F)c1cccc(NC(=O)c2c(C)[nH]c(-c3ccc(OC)c(N4CCNCC4)c3)[n+]2[O-])c1` [Compound 164, 4-((3-(1,1-difluoropropyl)phenyl)carbamoyl)-2-(4-methoxy-3-(piperazin-1-yl)phenyl)-5-methyl-1H-imidazole 3-oxide] are “Inactive” and below 1 nM.
In the case of `CCC(F)(F)c1cccc(NC(=O)c2c(C)[nH]c(-c3ccc(OC)c(N4CCN(C)CC4)c3)[n+]2[O-])c1` [Compound 165, 4-((3-(1,1-difluoropropyl)phenyl)carbamoyl)-2-(4-methoxy-3-(4-methylpiperazin-1-yl)phenyl)-5-methyl-1H-imidazole 3-oxide], the “ACSS1 Biochemical IC50 (nM)” value at human ACSS1 protein is reported as “Inactive”. For the same compound, the IC50 on human ACSS2 protein is below 1 nM.
In the same order, the values of `CCC(F)(F)c1cccc(NC(=O)c2c(C)[nH]c(-c3ccc(OC)c(C4CCN(C)CC4)c3)[n+]2[O-])c1` [Compound 166, N-[3-(1,1-difluoropropyl)phenyl]-2-[4-methoxy-3-(1-methyl-4-piperidyl)phenyl]-5-methyl-3-oxido-1H-imidazol-3-ium-4-carboxamide] are “Inactive” and above 30 nM.
In the same order, the values of `COc1ccc(-c2[nH]c(C)c(C(=O)Nc3cccc(C(=O)N4CCC4)c3)[n+]2[O-])cc1-c1c(C)cccc1C` [Compound 170, 4-((3-(azetidine-1-carbonyl)phenyl)carbamoyl)-2-(6-methoxy-2′,6′-dimethyl-[1,1′-biphenyl]-3-yl)-5-methyl-1H-imidazole 3-oxide] are “Inactive” and below 1 nM.
In the same order, the values of `COc1ccc(-c2[nH]c(C)c(C(=O)Nc3ccc4[nH]cnc4c3)[n+]2[O-])cc1-c1c(C)cccc1C` [Compound 173, 4-((1H-benzo[d]imidazol-5-yl)carbamoyl)-2-(6-methoxy-2′,6′-dimethyl-[1,1′-biphenyl]-3-yl)-5-methyl-1H-imidazole 3-oxide] are “Inactive” and above 30 nM.
As for `CCC(F)(F)c1cccc(NC(=O)c2c(C)n(COP(=O)(O)OC(C)(C)C)c(-c3ccc(OC)c(-c4c(C)cccc4C)c3)[n+]2[O-])c1` [Compound 188, 1-(((tert-butoxy(hydroxy)phosphoryl)oxy)methyl)-4-((3-(1,1-difluoropropyl)phenyl)carbamoyl)-2-(6-methoxy-2′,6′-dimethyl-[1,1′-biphenyl]-3-yl)-5-methyl-1H-imidazole 3-oxide], the “ACSS1 Biochemical IC50 (nM)” value at human ACSS1 protein was “Inactive”. For the same compound, on human ACSS2 protein, the half-inhibitory concentration (IC50) lay within 1 to 30 nM.
